Target: FadD17 (Rv3506) (Mycobacterium tuberculosis, UniProt O53551)
Sequence (O53551 whole entry): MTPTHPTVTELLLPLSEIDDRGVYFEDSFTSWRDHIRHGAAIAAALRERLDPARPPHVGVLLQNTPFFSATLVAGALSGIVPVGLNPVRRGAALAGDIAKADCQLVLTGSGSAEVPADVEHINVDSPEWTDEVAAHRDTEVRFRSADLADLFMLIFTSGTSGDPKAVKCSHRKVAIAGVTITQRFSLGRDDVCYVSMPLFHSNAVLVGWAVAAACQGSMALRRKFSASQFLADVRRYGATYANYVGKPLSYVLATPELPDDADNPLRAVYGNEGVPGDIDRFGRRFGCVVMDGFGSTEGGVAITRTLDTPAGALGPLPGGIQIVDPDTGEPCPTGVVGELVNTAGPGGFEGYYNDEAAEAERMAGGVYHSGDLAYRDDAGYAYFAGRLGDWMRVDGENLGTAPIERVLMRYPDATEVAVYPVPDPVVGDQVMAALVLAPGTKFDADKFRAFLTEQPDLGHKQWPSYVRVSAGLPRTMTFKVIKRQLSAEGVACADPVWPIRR

SMILES: C[C@H](/C=C/C(=O)O)[C@H]1CC[C@H]2[C@@H]3CCC4=CC(=O)CC[C@]4(C)[C@H]3CC[C@]12C [3-OCDO-acid]
- preparative CoA ligation, HPLC: 3-OCDO-CoA was then synthesized enzymatically from the 3-OCDO-acid using the steroid-CoA ligase FadD17
